Experimental data reported in patent publication US20220265834A1, “BCL-2 PROTEIN INHIBITORS” (Recurium IP Holdings, LLC, priority 2019, published 2022).

What was measured:
Assay type in all cases: cell-based
MOLT-4 cells = test: MOLT-4 Cell Proliferation Assay (CellTiter-Glo Luminescent Cell Viability Assay); details: Homo sapiens, 72 h incubation, read-out: MOLT-4 (nM) CTG IC50
Method: Cell proliferation was measured using the CellTiter-Glo® Luminescent Cell Viability Assay. The assay involved the addition of a single reagent (CellTiter-Glo® Reagent) directly to cells cultured in serum-supplemented medium. MOLT-4 cells (ATCC, CRL-1582) were cultured according to ATCC recommendations and were seeded at 50,000 cells per well.
Each compound evaluated was prepared as a DMSO stock solution (10 mM). Compounds were tested in duplicate on each plate, with a 10-point serial dilution curve (1:3 dilution). The highest compound concentration was 10 μM (final), with a 0.1% final DMSO concentration. Plates were then incubated at 37° C., 5% CO2 for 72 h, cell plates were equilibrated at rt for approximately 30 mins. An equi-volume amount of CellTiter-Glo® Reagent (100 μL) was added to each well. Plates were mixed for 2 mins on an orbital shaker to induce cell lysis and then incubated at rt for 10 mins to stabilize the luminescent signal. Luminescence was recorded using a Envision plate reader according to CellTiter-Glo protocol. IC50 of each compound was calculated using GraphPad Prism by nonlinear regression analysis.

Bcl-xL [1] = molecular target: T1, Bcl-xL (Homo sapiens, UniProt Q07817); test: Protein degradation assay in MOLM-13 cells (Western blot); details: for Bcl-xL degradation in MOLM-13 cells: increasing concentrations, 24 hours, FIG. 6; for Bcl-xL degradation with proteasome inhibitor MG132 in MOLM-13 cells: pretreated with 1 μM MG132 for 1 hour, then 1 μM compound, FIG. 7
Method: (§1) MOLT-4 (ATCC, CRL-1582) (FIGS. 4, 5) were incubated with vehicle or 100 nM concentrations of the indicated compounds for 16 hours. MOLM-13 (DSMZ, ACC554) (FIG. 6,7) cells were incubated with vehicle or increasing concentrations of the indicated compound for 24 hours. For proteasome inhibition, MOLM-13 cells were pretreated with 1 μM of MG132 for 1 hour before the addition of 1 μM of the indicated compounds. After treatment, the cells were harvested in RIPA lysis buffer supplemented with 1% Phosphatase Inhibitor and Protease Inhibitor Cocktail. An equal amount of protein (10 μg/lane) from each cell extract was resolved on a 4-12% Bis-Tris gel. Proteins were transferred using iBlot 2 Transfer Stacks. The membranes were blocked with 5% nonfat milk in TBS-T buffer (50 mM Tris-HCL, pH 7.6; 150 mM NaCl; and 0.05% Tween) and probed with primary antibodies (1:1000 dilution) overnight at 4° C. After three washes with TBS-T (10 min/wash), the membranes were incubated with an appropriate peroxidase-conjugated secondary antibody (Cell Signaling Technology, USA) for 1 hour at rt. After three washes with TBS-T, the proteins of interest were detected with ECL Western Blotting Detection Reagents and captured with an Azure imaging system. The band intensities were determined using ImageJ software and normalized to loading control β-actin or GAPDH. The primary antibodies Bcl-xL (#2762), Bcl-2 (#2872s), Mcl-1 (#5453s) and β-actin (13E5, #4970), and GAPDH (#5174) were purchased from Cell Signaling Technology.

Bcl-xL [2] = molecular target: T1, Bcl-xL; test: Protein degradation assay in MOLT-4 cells (Western blot); set-up: host or cells: MOLT-4; details: 100 nM compound, 16 hours, FIGS. 4 and 5
Method: as §1

T1 sequence (Q07817 whole entry): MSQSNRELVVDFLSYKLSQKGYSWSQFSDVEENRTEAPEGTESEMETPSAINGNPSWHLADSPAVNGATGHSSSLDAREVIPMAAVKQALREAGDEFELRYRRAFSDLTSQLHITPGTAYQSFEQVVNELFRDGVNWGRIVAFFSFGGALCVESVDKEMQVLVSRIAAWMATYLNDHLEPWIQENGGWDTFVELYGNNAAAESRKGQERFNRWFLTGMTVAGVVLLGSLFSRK

Row | IC50 (MOLT-4 cells) [nM] | Bcl-xL degradation in MOLT-4 cells (Bcl-xL [2]) | Structure (SMILES) | Bcl-xL degradation in MOLM-13 cells (Bcl-xL [1]) | Bcl-xL degradation with proteasome inhibitor MG132 in MOLM-13 cells (Bcl-xL [1])
1 | 100 to 200 | – | CC1(C)CCC(c2ccc(Cl)cc2)=C(CN2CCN(c3ccc(C(=O)NS(=O)(=O)c4ccc(N[C@H](CCN5CCOCC5)CSc5ccccc5)c(S(=O)(=O)C(F)(F)F)c4)cc3)CC2)C1 [ABT-263, reference compound] | – | –
2 | ≥ 200 | – | CC1(C)CCC(CN2CCN(c3ccc(C(=O)NS(=O)(=O)c4ccc(N[C@H](CCN5CCN(C(=O)NCCOCCOCCNc6cccc7c6C(=O)N(C6CCC(=O)NC6=O)C7=O)CC5)CSc5ccccc5)c(S(=O)(=O)C(F)(F)F)c4)cc3)CC2)=C(C23CC(C(F)F)(C2)C3)C1 (stereo partly drawn) [Example 1, 4-((R)-3-((4-(N-(4-(4-((2-(3-(difluoromethyl)bicyclo[1.1.1]pentan-1-yl)-4,4-dimethylcyclohex-1-en-1-yl)methyl)piperazin-1-yl)benzoyl)sulfamoyl)-2-((trifluoromethyl)sulfonyl)phenyl)amino)-4-(phenylthio)butyl)-N-(2-(2-(2-((2-(2,6-dioxopiperidin-3-yl)-1,3-dioxoisoindolin-4-yl)amino)ethoxy)ethoxy)ethyl)piperazine-1-carboxamide] | – | –
3 | ≤ 100 | induce Bcl-xL degradation | CC1(C)CCC(CN2CCN(c3ccc(C(=O)NS(=O)(=O)c4ccc(N[C@H](CCN5CCN(CCOCCNc6cccc7c6C(=O)N(C6CCC(=O)NC6=O)C7=O)CC5)CSc5ccccc5)c(S(=O)(=O)C(F)(F)F)c4)cc3)CC2)=C(C23CC(C(F)F)(C2)C3)C1 (stereo partly drawn) [Example 2, 4-(4-((2-(3-(Difluoromethyl)bicyclo[1.1.1]pentan-1-yl)-4,4-dimethylcyclohex-1-en-1-yl)methyl)piperazin-1-yl)-N-((4-(((2R)-4-(4-(2-(2-((2-(2,6-dioxopiperidin-3-yl)-1,3-dioxoisoindolin-4-yl)amino)ethoxy)ethyl)piperazin-1-yl)-1-(phenylthio)butan-2-yl)amino)-3-((trifluoromethyl)sulfonyl)phenyl)sulfonyl)benzamide] | can induce Bcl-xL degradation in MOLM-13 cells in a dose dependent manner | can be inhibited by proteasome inhibitor MG132
4 | – | – | CC1(C)CCC(CN2CCN(c3ccc(C(=O)NS(=O)(=O)c4ccc(N[C@H](CCN5CCN(CCOCCOCCNc6cccc7c6C(=O)N(C6CCC(=O)NC6=O)C7=O)CC5)CSc5ccccc5)c(S(=O)(=O)C(F)(F)F)c4)cc3)CC2)=C(C23CC(C(F)F)(C2)C3)C1 (stereo partly shown) [Example 3] | can induce Bcl-xL degradation in MOLM-13 cells in a dose dependent manner | can be inhibited by proteasome inhibitor MG132
5 | ≤ 100 | induce Bcl-xL degradation | CC1(C)CCC(CN2CCN(c3ccc(C(=O)NS(=O)(=O)c4ccc(N[C@H](CCN5CCN(CCOCCOCCOCCNc6cccc7c6C(=O)N(C6CCC(=O)NC6=O)C7=O)CC5)CSc5ccccc5)c(S(=O)(=O)C(F)(F)F)c4)cc3)CC2)=C(C23CC(C(F)F)(C2)C3)C1 (stereo partly drawn) [Example 4, 4-(4-((2-(3-(difluoromethyl)bicyclo[1.1.1]pentan-1-yl)-4,4-dimethylcyclohex-1-en-1-yl)methyl)piperazin-1-yl)-N-((4-(((2R)-4-(4-(2-(2-(2-(2-((2-(2,6-dioxopiperidin-3-yl)-1,3-dioxoisoindolin-4-yl)amino)ethoxy)ethoxy)ethoxy)ethyl)piperazin-1-yl)-1-(phenylthio)butan-2-yl)amino)-3-((trifluoromethyl)sulfonyl)phenyl)sulfonyl)benzamide] | – | can be inhibited by proteasome inhibitor MG132
6 | 100 to 200 | induce Bcl-xL degradation | CC1(C)CCC(CN2CCN(c3ccc(C(=O)NS(=O)(=O)c4ccc(N[C@H](CCN5CCC(C(=O)NCCOCCOCCNc6cccc7c6C(=O)N(C6CCC(=O)NC6=O)C7=O)CC5)CSc5ccccc5)c(S(=O)(=O)C(F)(F)F)c4)cc3)CC2)=C(C23CC(C(F)F)(C2)C3)C1 (stereo partly drawn) [Example 5, 1-((R)-3-((4-(N-(4-(4-((2-(3-(difluoromethyl)bicyclo[1.1.1]pentan-1-yl)-4,4-dimethylcyclohex-1-en-1-yl)methyl)piperazin-1-yl)benzoyl)sulfamoyl)-2-((trifluoromethyl)sulfonyl)phenyl)amino)-4-(phenylthio)butyl)-N-(2-(2-(2-((2-(2,6-dioxopiperidin-3-yl)-1,3-dioxoisoindolin-4-yl)amino)ethoxy)ethoxy)ethyl)piperidine-4-carboxamide] | – | –
7 | ≤ 100 | induce Bcl-xL degradation | CC1(C)CCC(CN2CCN(c3ccc(C(=O)NS(=O)(=O)c4ccc(N[C@H](CCN5CCN(CCOCCNc6ccc7c(c6)C(=O)N(C6CCC(=O)NC6=O)C7=O)CC5)CSc5ccccc5)c(S(=O)(=O)C(F)(F)F)c4)cc3)CC2)=C(C23CC(C(F)F)(C2)C3)C1 (stereo partly drawn) [Example 6, 4-(4-((2-(3-(Difluoromethyl)bicyclo[1.1.1]pentan-1-yl)-4,4-dimethylcyclohex-1-en-1-yl)methyl)piperazin-1-yl)-N-((4-(((2R)-4-(4-(2-(2-((2-(2,6-dioxopiperidin-3-yl)-1,3-dioxoisoindolin-5-yl)amino)ethoxy)ethyl)piperazin-1-yl)-1-(phenylthio)butan-2-yl)amino)-3-((trifluoromethyl)sulfonyl)phenyl)sulfonyl)benzamide] | – | –
8 | ≤ 100 | induce Bcl-xL degradation | CC1(C)CCC(CN2CCN(c3ccc(C(=O)NS(=O)(=O)c4ccc(N[C@H](CCN5CCN(CCOCCNc6cccc7c6C(=O)N(C6CCC(=O)NC6=O)C7=O)CC5)CSc5ccccc5)c(S(=O)(=O)C(F)(F)F)c4)cc3)CC2)=C(C23CC(C)(C2)C3)C1 (stereo partly drawn) [Example 9, 4-(4-((4,4-Dimethyl-2-(3-methylbicyclo[1.1.1]pentan-1-yl)cyclohex-1-en-1-yl)methyl)piperazin-1-yl)-N-((4-(((2R)-4-(4-(2-(2-((2-(2,6-dioxopiperidin-3-yl)-1,3-dioxoisoindolin-4-yl)amino)ethoxy)ethyl)piperazin-1-yl)-1-(phenylthio)butan-2-yl)amino)-3-((trifluoromethyl)sulfonyl)phenyl)sulfonyl)benzamide] | – | –
9 | ≤ 100 | induce Bcl-xL degradation | CC1(C)CCC(CN2CCN(c3ccc(C(=O)NS(=O)(=O)c4ccc(N[C@H](CCN5CCN(CCOCCOCCOCCNc6cccc7c6C(=O)N(C6CCC(=O)NC6=O)C7=O)CC5)CSc5ccccc5)c(S(=O)(=O)C(F)(F)F)c4)cc3)CC2)=C(C23CC(C)(C2)C3)C1 (stereo partly drawn) [Example 10, 4-(4-((4,4-dimethyl-2-(3-methylbicyclo[1.1.1]pentan-1-yl)cyclohex-1-en-1-yl)methyl)piperazin-1-yl)-N-((4-(((2R)-4-(4-(2-(2-(2-(2-((2-(2,6-dioxopiperidin-3-yl)-1,3-dioxoisoindolin-4-yl)amino)ethoxy)ethoxy)ethoxy)ethyl)piperazin-1-yl)-1-(phenylthio)butan-2-yl)amino)-3-((trifluoromethyl)sulfonyl)phenyl)sulfonyl)benzamide] | – | –
